The text below walks through data of patent US20220110902A1, “Methods of treating amyloid-beta peptide diseases” (Ecole Polytechnique Federale de Lausanne, priority 2016, published 2022).

One assay relates to CL2122 worms. The experiment in a line: Mobility of CL2122 control worms. It is filed as in vivo, C. elegans. As to conditions: CL2122, day 1 to 4 and day 8 of adulthood; NR 1 mM, AZD 0.3 μM. The protocol:
Doxycycline was obtained from Sigma-Aldrich and dissolved in water. For experiments, a final concentration of 15 μg/mL was used. Olaparib (AZD2281) was dissolved in DMSO to experimental concentrations of 300 nM. Nicotinamide Riboside triflate (NR) was custom synthesized by Novalix (www.novalix-pharma.com/) and dissolved in water, and used at a final concentration of 1 mM. Compounds were added just before pouring the plates. For phenotyping experiments, parental F0 L4 worms were allowed to reach adulthood and lay eggs on the treatment plates. The deriving F1 worms were therefore exposed to compounds during the full life from eggs until death. For RNA analysis experiments, synchronized L1 worms were exposed to the compounds until harvest. To ensure a permanent exposure to the compound, plates were changed twice a week.
Mobility: C. elegans movement analysis was performed as described, starting from day 1 of adulthood, using the Movement Tracker software. The experiments were repeated at least twice.

In assay [1] the test system is SH-SY5Y neuroblastoma cell line expressing the APP Swedish K670N/M671L double mutation (APPSwe). Put plainly: Immunostaining of intracellular Aβ deposits in APPSwe SH-SY5Y cells. Type of assay: cell-based, human. The protocol:
The SH-SY5Y neuroblastoma cell line expressing the APP Swedish K670N/M671L double mutation (APPSwe) was a kind gift of Prof. Cedazo-Minguez (Karolinska Institute, Sweden). Cells were grown in DMEM/F-12, supplemented with 10% fetal bovine serum (FBS, Gibco), GlutaMAX (100×, Gibco) and penicillin/streptomycin (1×, Gibco). Cells were selected in 4 μg/mL Geneticin® Selective Antibiotic (G418 Sulfate, Sigma) and grown for three generations before experiments with cells plated and passaged at 4×10^3 cells/ml and 60% confluence, respectively. Cells were cultured at 37° C. under a 5% CO2 atmosphere and tested for mycoplasma using Mycoprobe (#CUL001B, R&D systems) following the manufacturer's instructions. Cells were treated with 10 μg/mL dox, NR 1 or 3 mM, ISRIB 0.5 μM (Sigma), as indicated for 24 hours before cell harvesting or fixation. For the immunostaining, cells were fixed with 1× Formal-Fixx (Thermo Scientific) for 15 min. After 15 min permeabilization with 0.1% Triton X-100, cells were blocked in PBS supplemented with 5% fetal bovine serum for 1 hour and immunostained overnight, at 4° C., with the anti-β-Amyloid 1-42 (1:100, Millipore AB5078P). The secondary antibody was coupled to the Alexa-488 fluorochrome (Thermo Scientific), and nuclei were stained with DAPI (Invitrogen, D1306). After washing in PBS, cell slides were mounted with Dako mounting medium (Dako, S3023) and examined with a Zeiss LSM 700 confocal microscope (Carl Zeiss MicroImaging) equipped with a Plan-Apochromat 40×/1.3 NA oil immersion objective lens using a 488 nm laser. Laser power was set at the lowest intensity allowing clear visualization of the signal. Imaging settings were maintained with the same parameters for comparison between different experimental conditions.
The SH-SY5Y neuroblastoma cell line expresses the APP Swedish K670N/M671L double mutation (APPSwe) (Zheng et al., 2011) and accumulates intracellular Aβ amyloid aggregates. Cells were grown in DMEM/F-12, supplemented with 10% fetal bovine serum (FBS, Gibco), GlutaMAX (100×, Gibco) and penicillin/streptomycin (1×, Gibco). Cells were selected in 4 μg/mL Geneticin® Selective Antibiotic (G418 Sulfate, Sigma) and grown for three generations before experiments with cells plated and passaged at 4×10{right arrow over ( )}3 cells/ml and 60% confluence, respectively. Cells were cultured at 37° C. under a 5% CO2 atmosphere and tested for mycoplasma using Mycoprobe (#CUL001B, R&D systems), following the manufacturer's instructions. Myriocin was dissolved in DMSO.
Cells were treated with 10 uM Myriocin and Fumonisin B1 for 24 hours before harvesting or fixation (FIG. 3A). For immunostaining, cells were fixed with 1× Formal-Fixx (Thermo Scientific) for 15 min. […]

“Also recorded” adds a separate entry of the source.

For `O=C(c1cc(Cc2n[nH]c(=O)c3ccccc23)ccc1F)N1CCN(C(=O)C2CC2)CC1` [AZD, Olaparib, reference compound], the “fitness (mobility) of control strain” value in the assay on CL2122 worms is reported as “only improved CL2122 fitness during aging”. For `NC(=O)c1ccc[n+]([C@@H]2O[C@H](CO)[C@@H](O)[C@H]2O)c1` [NR, Nicotinamide Riboside triflate], the “intracellular Aβ deposits (anti-β-Amyloid 1-42 immunodetection)” value in assay [1] (24 h, dox 10 μg/mL, NR 3 mM) is recorded as “remarkable reduction”. For the same molecule, the “fitness (mobility) of control strain” value with CL2122 worms is “only improved CL2122 fitness during aging”. In the case of `CCCCCCC(=O)CCCCCC/C=C/C[C@@H](O)[C@H](O)[C@@](N)(CO)C(=O)O` [Myriocin, (E,2S,3R,4R)-2-amino-3,4-dihydroxy-2-(hydroxymethyl)-14-oxoicos-6-enoic acid], the “intracellular Aβ deposits” value in assay [1] (10 uM, 24 hours) is reported as “significantly reduced; also recorded: markedly reduced”.
